Results reported in patent EP3046573B1, “AMYLIN ANALOGUES” (Zealand Pharma A/S, priority 2013, dated 2015).
Numbered stars: 1 amine (or outer) side, 2 acyl side, 3 side chain; on linkers, the order of the positions; unused ones are H or OH. Bridge positions count the residues as written; N and C are the ends. Square brackets hold non-standard residues; d marks the D form. Peptide text beside a SMILES is read from it. * marks the point of attachment. C20 diacid = O=C(O)CCCCCCCCCCCCCCCCCCC(=O)*; γGlu = O=C(O)[C@H](CCC(=O)[*:2])N[*:1]; NMeI = CC[C@H](C)[C@H](NC)C(=O)O; Sar = CNCC(=O)O

Columns and labels:
[1] = Solubility assessment (turbidity absorbance at 325 nm); type: physicochemical; settings: stock 2 mg/ml diluted 1:1, ambient temperature (typically 25°C), n=1; for Solubility, Acetate buffer pH 4: 100 mM acetate buffer pH 4.0; for Solubility, Acetate buffer pH 5: 100 mM acetate buffer pH 5.0; for Solubility, Histidine buffer pH 6: 100 mM histidine buffer pH 6.0; for Solubility, Histidine buffer pH 7: 100 mM histidine buffer pH 7.0; for Solubility, Phosphate buffer pH 6: 100 mM phosphate buffer pH 6.0; for Solubility, Phosphate buffer pH 7: 100 mM phosphate buffer pH 7.0; for Solubility, Phosphate buffer pH 7.5: 100 mM phosphate buffer pH7.5
Summary of the method: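 Peptide stock (2 mg/ml, water pH 2.5) diluted 1:1 into 100 mM acetate (pH 4.0, 5.0), histidine (pH 6.0, 7.0) or phosphate (pH 6.0–7.5) buffer; absorbance at 325 nm read at about 25°C, n=1. A325 ≤ 0.02 taken as solubility ≥ 1 mg/ml.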

[2] = biological target: T1, human amylin receptor 3 (hAMYR3) consisting of hCTR2 co-expressed with human Receptor Activity Modifying Protein 3 (hRAMP3) (Homo sapiens, UniProt O60896+P30988); assay: hAMYR3 assay: induction of cAMP (AlphaScreen cAMP Assay kit) in COS7 cells expressing hAMYR3; type: cell-based; settings: cAMP induction in COS7 cells expressing hAMYR3; average of a minimum of 3 determinations; read-out: hAMY R3 EC50
T1 construct: expressed in transfected cells
T1 sequence (P30988 25-474): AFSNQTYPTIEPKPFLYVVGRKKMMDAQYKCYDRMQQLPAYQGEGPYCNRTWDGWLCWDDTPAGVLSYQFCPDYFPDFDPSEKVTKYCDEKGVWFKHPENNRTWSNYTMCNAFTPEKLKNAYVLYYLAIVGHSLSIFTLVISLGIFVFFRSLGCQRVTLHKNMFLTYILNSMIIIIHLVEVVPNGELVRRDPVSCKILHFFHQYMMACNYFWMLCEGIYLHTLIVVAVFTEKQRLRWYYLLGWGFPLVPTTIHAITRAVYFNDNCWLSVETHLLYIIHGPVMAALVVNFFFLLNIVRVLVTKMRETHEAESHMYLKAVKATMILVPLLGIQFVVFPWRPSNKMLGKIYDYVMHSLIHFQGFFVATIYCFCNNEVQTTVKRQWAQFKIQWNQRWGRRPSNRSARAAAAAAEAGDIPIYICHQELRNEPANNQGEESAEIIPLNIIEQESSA
T1 sequence (O60896 24-148 partner): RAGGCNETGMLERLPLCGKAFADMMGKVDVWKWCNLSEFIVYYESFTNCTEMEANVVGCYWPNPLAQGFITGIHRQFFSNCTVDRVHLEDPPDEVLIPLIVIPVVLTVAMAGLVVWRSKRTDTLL
Summary of the method: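 Stable COS7 clone co-expressing hCTR2 and hRAMP3, stimulated 15 min at 37° C with increasing peptide in Tyrode buffer pH 7.4 with 100 µM IBMX and 0.1% casein. cAMP measured by AlphaScreen after lysis; EC50 and % efficacy versus pramlintide from 4PL fit.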

[3] = biological target: T2, human calcitonin receptor (hCTR2) (Homo sapiens, UniProt P30988); assay: hCTR2 assay: induction of cAMP (AlphaScreen cAMP Assay kit) in COS7 cells expressing hCTR2; type: cell-based; settings: cAMP induction in COS7 cells expressing hCTR2; average of a minimum of 3 determinations; read-out: hCTR2 EC50
T2 construct: expressed in transfected cells
T2 sequence (P30988 25-474): T1 sequence (P30988 25-474)
Summary of the method: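 Stable hCTR2 clone in RAMP-naive COS7 cells; peptides titrated in Tyrode buffer (pH 7.4) with 100 µM IBMX, 0.1% casein, 15 min at 37° C. cAMP read by AlphaScreen after lysis; EC50 and efficacy relative to pramlintide from 4PL fit.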

Row | Structure (SMILES) | Solubility, Acetate buffer pH 4 [1] | Solubility, Acetate buffer pH 5 [1] | Solubility, Histidine buffer pH 6 [1] | Solubility, Histidine buffer pH 7 [1] | Solubility, Phosphate buffer pH 6 [1] | Solubility, Phosphate buffer pH 7 [1] | Solubility, Phosphate buffer pH 7.5 [1] | EC50 [2] [nM] | EC50 [3] [nM]
1 | CC[C@H](C)[C@@H](C(=O)N[C@@H](CC(C)C)C(=O)N[C@@H](CO)C(=O)N[C@@H](CO)C(=O)N[C@H](C(=O)N[C@@H](CC(=O)O)C(=O)N[C@H](C(=O)NCC(=O)N[C@@H](CO)C(=O)N[C@@H](CC(=O)O)C(=O)N[C@H](C(=O)N1CCC[C@H]1C(N)=O)[C@@H](C)O)C(C)C)[C@@H](C)O)N(C)C(=O)[C@H](C)NC(=O)CN(C)C(=O)[C@H](Cc1ccccc1)NC(=O)[C@H](CO)NC(=O)[C@H](CO)NC(=O)[C@H](CCCNC(=N)N)NC(=O)[C@H](Cc1c[nH]cn1)NC(=O)[C@H](CC(C)C)NC(=O)[C@H](Cc1ccccc1)NC(=O)[C@H](CCC(=O)O)NC(=O)[C@H](C)NC(=O)[C@H](CC(C)C)NC(=O)[C@H](CCCNC(=N)N)NC(=O)[C@H](CC(=O)O)NC(=O)[C@@H](NC(=O)[C@H](C)NC(=O)[C@@H]1CSSC[C@H](NC(=O)[C@H](Cc2c[nH]c3ccccc23)NC(=O)CC[C@H](NC(=O)CCCCCCCCCCCCCCCCCCC(=O)O)C(=O)O)C(=O)NCC(=O)N[C@@H]([C@@H](C)O)C(=O)N[C@@H](C)C(=O)N[C@@H]([C@@H](C)O)C(=O)N1)[C@@H](C)O [Compound 157, [19CD]-isoGlu-WC()GTATC()ATDRLAEFLHRSSF-Gly(Me)-A-Ile(Me)-LSSTDVGSDTP-NH2] ({C20 diacid-γGlu}-WCGTATCATDRLAEFLHRSSF[Sar]A[NMeI]LSSTDVGSDTP-NH2; disulfide 2-7) | II (II indicates solubility ≤ 1 mg/ml) | SS (SS indicates solubility ≥ 1mg/ml) | SS (SS indicates solubility ≥ 1mg/ml) | SS (SS indicates solubility ≥ 1mg/ml) | SS (SS indicates solubility ≥ 1mg/ml) | SS (SS indicates solubility ≥ 1mg/ml) | SS (SS indicates solubility ≥ 1mg/ml) | 0.16 | 0.072
2 | CC[C@H](C)[C@@H](C(=O)N[C@@H](CC(C)C)C(=O)N[C@@H](CO)C(=O)N[C@@H](CO)C(=O)N[C@H](C(=O)N[C@@H](CC(=O)O)C(=O)N[C@H](C(=O)NCC(=O)N[C@@H](CO)C(=O)N[C@@H](CC(=O)O)C(=O)N[C@H](C(=O)N1CCC[C@H]1C(N)=O)[C@@H](C)O)C(C)C)[C@@H](C)O)N(C)C(=O)[C@H](C)NC(=O)CN(C)C(=O)[C@H](Cc1ccccc1)NC(=O)[C@H](CO)NC(=O)[C@H](CO)NC(=O)[C@H](CCCNC(=N)N)NC(=O)[C@H](Cc1c[nH]cn1)NC(=O)[C@H](CC(C)C)NC(=O)[C@H](Cc1ccccc1)NC(=O)[C@H](CCC(=O)O)NC(=O)[C@H](C)NC(=O)[C@H](CC(C)C)NC(=O)[C@H](CCCNC(=N)N)NC(=O)[C@H](CC(=O)O)NC(=O)[C@@H](NC(=O)[C@H](C)NC(=O)[C@@H]1CSSC[C@H](NC(=O)[C@H](CCCNC(=N)N)NC(=O)CC[C@H](NC(=O)CCCCCCCCCCCCCCCCCCC(=O)O)C(=O)O)C(=O)NCC(=O)N[C@@H]([C@@H](C)O)C(=O)N[C@@H](C)C(=O)N[C@@H]([C@@H](C)O)C(=O)N1)[C@@H](C)O [Compound 158, [19CD]-isoGlu-RC()GTATC()ATDRLAEFLHRSSF-Gly(Me)-A-Ile(Me)-LSSTDVGSDTP-NH2] ({C20 diacid-γGlu}-RCGTATCATDRLAEFLHRSSF[Sar]A[NMeI]LSSTDVGSDTP-NH2; disulfide 2-7) | SS (SS indicates solubility ≥ 1mg/ml) | SS (SS indicates solubility ≥ 1mg/ml) | SS (SS indicates solubility ≥ 1mg/ml) | SS (SS indicates solubility ≥ 1mg/ml) | SS (SS indicates solubility ≥ 1mg/ml) | SS (SS indicates solubility ≥ 1mg/ml) | SS (SS indicates solubility ≥ 1mg/ml) | 0.11 | 0.048
3 | CC[C@H](C)[C@@H](C(=O)N[C@@H](CC(C)C)C(=O)N[C@@H](CO)C(=O)N[C@@H](CO)C(=O)N[C@H](C(=O)N[C@@H](CC(=O)O)C(=O)N[C@H](C(=O)NCC(=O)N[C@@H](CO)C(=O)N[C@@H](CC(=O)O)C(=O)N[C@H](C(=O)N1CCC[C@H]1C(N)=O)[C@@H](C)O)C(C)C)[C@@H](C)O)N(C)C(=O)[C@H](C)NC(=O)CN(C)C(=O)[C@H](Cc1ccccc1)NC(=O)[C@H](CO)NC(=O)[C@H](CO)NC(=O)[C@H](CO)NC(=O)[C@H](CO)NC(=O)[C@H](CCCNC(=N)N)NC(=O)[C@H](Cc1c[nH]cn1)NC(=O)[C@H](CC(C)C)NC(=O)[C@H](Cc1ccccc1)NC(=O)[C@H](CCC(=O)O)NC(=O)[C@H](C)NC(=O)[C@H](CC(C)C)NC(=O)[C@H](CCCNC(=N)N)NC(=O)[C@H](CCC(=O)O)NC(=O)[C@@H](NC(=O)[C@H](C)NC(=O)[C@@H]1CSSC[C@H](NC(=O)[C@H](CCCCN)NC(=O)[C@H](CCCCN)NC(=O)CC[C@H](NC(=O)CCCCCCCCCCCCCCCCCCC(=O)O)C(=O)O)C(=O)N[C@@H](CC(N)=O)C(=O)N[C@@H]([C@@H](C)O)C(=O)N[C@@H](C)C(=O)N[C@@H]([C@@H](C)O)C(=O)N1)[C@@H](C)O [Compound 159, [19CD]-isoGlu-KKC()NTATC()ATERLAEFLHRSSSSF-Gly(Me)-A-Ile(Me)-LSSTDVGSDTP-NH2] ({C20 diacid-γGlu}-KKCNTATCATERLAEFLHRSSSSF[Sar]A[NMeI]LSSTDVGSDTP-NH2; disulfide 3-8) | SS (SS indicates solubility ≥ 1mg/ml) | SS (SS indicates solubility ≥ 1mg/ml) | SS (SS indicates solubility ≥ 1mg/ml) | SS (SS indicates solubility ≥ 1mg/ml) | SS (SS indicates solubility ≥ 1mg/ml) | SS (SS indicates solubility ≥ 1mg/ml) | SS (SS indicates solubility ≥ 1mg/ml) | 0.14 | 0.1
